In patent US12065445B2, “CDK2 inhibitors and methods of using the same” (Cedilla Therapeutics, Inc., priority 2021, dated 2024):
pIC50: −log10 of the molar value.

Test system: Kuramochi cells labeled with mApple-H2B
Assay: IncuCyte Cell Proliferation Assay
Format: cell-based
Protocol: IncuCyte® assay was used to measure the effect of disclosed compounds on cell proliferation. Fluorescent microscopy images of cells were taken immediately after compound treatment and 72 hours later. Image analysis software was used to obtain cell counts as a function of compound concentration. Kuramochi cells labeled with mApple-H2B were seeded on 384-well assay-ready plates. Plates were placed in an IncuCyte® (Sartorius) and scanned at 0 and 72 hours. IncuCyte® software was used to count the number of fluorescent nuclei in each well. The fold change in cell count from 0 to 72 hours in wells treated with increasing compounds concentrations (10 pts, ½ log dilution, 20 μM top concentration) was normalized to DMSO control wells. The normalized cell counts were fit with dose response curves and a […] was calculated.

Compound	pIC50 (72 h)	pIC50 (72 hours)
Cc1ccc(CNC(=O)[C@@H]2CN(C(=O)c3cnn(Cc4ccccn4)c3)CC23CN(C(=O)[C@H]2CC2(C)C)C3)nn1 [I-417]	< 4.70	–
C[C@@H](OCC1(C(F)(F)F)CC1)[C@H](NC(=O)[C@H]1CN(C(=O)c2cncs2)CC12CN(C(=O)[C@H]1CC1(C)C)C2)C(=O)N1CCCCC1 [I-292]	< 4.70	–
C[C@@H](OCC1CCOCC1)[C@H](NC(=O)[C@@H]1CN(C(=O)c2cncs2)CC12CN(C(=O)[C@H]1CC1(C)C)C2)C(=O)N1CCC(n2ccnc2)CC1 [I-440]	< 4.70	–
COC[C@H]1CCCN(C(=O)[C@@H](NC(=O)[C@@H]2CN(C(=O)c3cncs3)CC23CN(C(=O)[C@H]2CC2(C)C)C3)[C@@H](C)OC[C@H]2CC[C@H](OC(F)(F)F)CC2)C1 [I-435]	5.30 to 6.30	–
COC1CCN(C(=O)[C@@H](NC(=O)[C@@H]2CN(C(=O)c3sc(C)nc3C)CC23CN(C(=O)[C@H]2CC2(C)C)C3)[C@@H](C)OCC23CCC(CC2)OC3)CC1 [I-451]	4.70 to 5.30	–
CNC(=O)C(NC(=O)[C@@H]1CN(C(=O)c2cncs2)CC12CN(C(=O)[C@H]1CC1(C)C)C2)c1ccc(C)nn1 (stereo partly shown) [I-420]	< 4.70	–
C[C@@H](OCc1ccc(Cl)cc1)[C@@H](CO)NC(=O)[C@@H]1CN(C(=O)c2cncs2)CC12CN(C(=O)[C@H]1CC1(C)C)C2 [I-404]	< 4.70	–
C[C@@H](OCC1CCC(F)(F)CC1)[C@H](NC(=O)[C@@H]1CN(C(=O)c2cncs2)CC12CN(C(=O)[C@H]1CC1(C)C)C2)C(=O)N1CCC(CO)CC1 [I-397]	5.30 to 6.30	–
COC[C@H]1CCCN(C(=O)[C@@H](NC(=O)[C@@H]2CN(C(=O)c3cncs3)CC23CN(C(=O)[C@H]2CC2(C)C)C3)[C@@H](C)O[C@@H](C)C2CCCCC2)C1 [I-467]	–	5.30 to 6.30
C[C@@H](OCC1CCC2(CCC2)CC1)[C@H](NC(=O)[C@@H]1CN(C(=O)c2cnn(Cc3ccccc3)c2)CC12CN(C(=O)[C@H]1CC1(C)C)C2)C(=O)N1CCC(c2cnc[nH]2)CC1 [I-444]	≥ 6.30	–
C[C@@H](OCC1CCCCC1)[C@@H](COC1CCCNC1)NC(=O)[C@@H]1CN(C(=O)c2cncs2)CC12CN(C(=O)[C@H]1CC1(C)C)C2 (stereo partly shown) [I-332]	4.70 to 5.30	–
C[C@@H](OCc1ccccc1)[C@H](NC(=O)[C@@H]1CN(C(=O)c2cncs2)CC12CN(C(=O)[C@H]1CC1(C)C)C2)C(=O)N(C)C [I-416]	4.70 to 5.30	–
Cc1ccc(CNC(=O)[C@@H]2CN(C(=O)c3cnn(Cc4ccncc4F)c3)CC23CN(C(=O)[C@H]2CC2(C)C)C3)nn1 [I-35]	< 4.70	–
CNC(=O)[C@@H](NC(=O)[C@@H]1CN(C(=O)c2cncs2)CC12CN(CC(C)(C)C)C2)[C@@H](C)OCC12CCC(CC1)OC2 [I-347]	< 4.70	–
CC(C)(O)C(NC(=O)[C@@H]1CN(C(=O)c2cncs2)CC12CN(C(=O)C(C)(C)C1CC1)C2)c1cccc(C2CCOCC2)n1 (stereo partly shown) [I-339]	< 4.70	–
C[C@@H](OCC12CCC(CC1)OC2)[C@H](NC(=O)[C@@H]1CN(C(=O)c2cncs2)CC12CN(C(=O)C(C)(C)C1CC1)C2)C(C)(C)O [I-334]	< 4.70	–
Cc1nc(C)c(C(=O)N2C[C@@H](C(=O)NC(c3cccc(C4CCOCC4)n3)C(C)(C)O)C3(C2)CN(C(=O)[C@H]2CC2(C)C)C3)s1 (stereo partly shown) [I-437]	< 4.70	–
Cc1nc(C)c(C(=O)N2C[C@@H](C(=O)N[C@H](C(=O)N3CCC4(CC3)COC4)[C@@H](C)OCC34CCC(CC3)OC4)C3(C2)CN(C(=O)[C@H]2CC2(C)C)C3)s1 [I-343]	< 4.70	–
CNC(=O)[C@@H](NC(=O)[C@@H]1CN(C(=O)c2cncs2)CC12CN(CC1CCCO1)C2)[C@@H](C)OCC1CCCCC1 (stereo partly shown) [I-352]	< 4.70	–
C[C@@H](OCC12CCC(CC1)OC2)[C@H](NC(=O)[C@@H]1CN(C(=O)c2cncs2)CC12CN(C(=O)[C@H]1CC1(C)C)C2)C(=O)N1CCC(C)(C)CC1 [I-452]	≥ 6.30	–
C[C@@H](OCC1CCCCC1)[C@@H](COC1CCOCC1)NC(=O)[C@@H]1CN(C(=O)c2cncs2)CC12CN(C(=O)[C@H]1CC1(C)C)C2 [I-331]	≥ 6.30	–
C[C@@H](OCC1CCCCC1)[C@H](NC(=O)[C@@H]1CN(C(=O)c2cnn(Cc3ccccc3)c2)CC12CN(C(=O)[C@H]1CC1(C)C)C2)C(=O)N1CC[C@H]1CN [I-310]	4.70 to 5.30	–
CNC(=O)[C@@H](NC(=O)[C@@H]1CN(C(=O)c2cncs2)CC12CN(Cc1cnco1)C2)[C@@H](C)OCC12CCC(CC1)OC2 [I-350]	< 4.70	–
C[C@@H](OCC1CCCCC1)[C@H](NC(=O)[C@@H]1CN(C(=O)c2cnn(Cc3ccccc3)c2)CC12CN(C(=O)[C@H]1CC1(C)C)C2)C(=O)N1CCC(c2cnc[nH]2)CC1 [I-438]	5.30 to 6.30	–
CNC(=O)[C@@H](NC(=O)[C@]1(C)CN(C(=O)c2cnn(Cc3ccccc3)c2)CC12CN(C(=O)[C@H]1CC1(C)C)C2)[C@@H](C)OCC1CCCCC1 [I-499A]	< 4.70	–

Compound	pIC50 (72 h)	pIC50 (72 hours)
CC(C)(O)C(NC(=O)[C@@H]1CN(C(=O)c2cnco2)CC12CN(C(=O)[C@H]1CC1(C)C)C2)c1cccc(C2CCOCC2)n1 (stereo partly shown) [I-436]	< 4.70	–
CNC(=O)[C@@H](NC(=O)C1(C)CN(C(=O)c2cnn(Cc3ccccc3)c2)CC12CN(C(=O)[C@H]1CC1(C)C)C2)[C@@H](C)OCc1ccccc1 (stereo partly drawn) [I-498, 6-(1-benzyl-1H-pyrazole-4-carbonyl)-N-((2S,3R)-3-(benzyloxy)-1-(methylamino)-1-oxobutan-2-yl)-2-((S)-2,2-dimethylcyclopropane-1-carbonyl)-8-methyl-2,6-diazaspiro[3.4]octane-8-carboxamide]	< 4.70	–
C[C@@H](OCC12CCC(CC1)OC2)[C@H](NC(=O)[C@@H]1CN(C(=O)c2cncs2)CC12CN(C(=O)[C@H]1CC1(C)C)C2)C(=O)N1CCCC2(COC2)C1 [I-453]	4.70 to 5.30	–
COC[C@H]1CCCN(C(=O)[C@@H](NC(=O)[C@@H]2CN(C(=O)c3cncs3)CC23CN(C(=O)[C@H]2CC2(C)C)C3)[C@@H](C)OCc2ccc(OC(F)(F)F)cc2)C1 [I-320]	5.30 to 6.30	–
C[C@@H](OCC1CCCCC1)[C@@H](COC1CCNCC1)NC(=O)[C@@H]1CN(C(=O)c2cncs2)CC12CN(C(=O)[C@H]1CC1(C)C)C2 [I-329]	5.30 to 6.30	–
C[C@@H](OCC1CCCCC1)[C@H](NC(=O)C1CN(C(=O)c2cnn(Cc3ccccc3)c2)CC12CN(C(=O)[C@H]1CC1(C)C)C2)C(=O)NCCC(=O)O (stereo partly shown) [I-353]	4.70 to 5.30	–
C[C@@H](OCc1ccccc1)[C@H](NC(=O)[C@@H]1CN(C(=O)c2cnn(Cc3ccccc3)c2)CC12CN(C(=O)[C@H]1CC1(C)C)C2)C(=O)N(C)C [I-409]	5.30 to 6.30	–
C[C@@H](OCC12CCC(CC1)OC2)[C@H](NC(=O)[C@@H]1CN(C(=O)c2cncs2)CC12CN(C(=O)[C@H]1CC1(C)C)C2)C(=O)N1CCC[C@H](COC(F)F)C1 [I-461]	5.30 to 6.30	–
C[C@@H](OCC1(C(F)(F)F)CC1)[C@H](NC(=O)[C@@H]1CN(C(=O)c2cncs2)CC12CN(C(=O)[C@H]1CC1(C)C)C2)C(=O)N1CCCCC1 [I-285]	< 4.70	–
COC[C@H]1CCCN(C(=O)[C@@H](NC(=O)[C@@H]2CN(C(=O)c3cncs3)CC23CN(C(=O)[C@H]2CC2(C)C)C3)[C@@H](C)OC[C@H]2CC[C@@H](OC)CC2)C1 [I-408]	5.30 to 6.30	–
C[C@@H](OCC1CCC(F)(F)CC1)[C@H](NC(=O)[C@@H]1CN(C(=O)c2cncs2)CC12CN(C(=O)C(C)(C)C1CC1)C2)C(=O)N1CCC(O)CC1 [I-337]	5.30 to 6.30	–
C[C@@H](OCC12CCC(CC1)OC2)[C@H](NC(=O)[C@@H]1CN(C(=O)c2sc(Cl)nc2Cl)CC12CN(C(=O)C(C)(C)C1CC1)C2)C(C)(C)O [I-471]	< 4.70	–
C[C@@H](OCC1CCCCC1)[C@H](NC(=O)[C@@H]1CN(C(=O)c2cnn(Cc3ccccc3)c2)CC12CN(C(=O)[C@H]1CC1(C)C)C2)C(=O)O [I-477]	< 4.70	–
CNC(=O)C(NC(=O)[C@@H]1CN(C(=O)c2cncs2)CC12CN(C(=O)[C@H]1CC1(C)C)C2)c1cccc(C2CCC(F)(F)CC2)n1 (stereo partly shown) [I-411]	< 4.70	–
CNC(=O)C(NC(=O)[C@@H]1CN(C(=O)c2cnn(Cc3ccccc3)c2)CC12CN(C(=O)[C@H]1CC1(C)C)C2)c1ccc(C)nn1 (stereo partly shown) [I-421]	< 4.70	–
CC1(C)C[C@@H]1C(=O)N1CC2(CN(C(=O)c3cncs3)C[C@H]2C(=O)NC(c2cccc(C3CCCCC3)n2)C2CCCO2)C1 (stereo partly shown) [I-495]	5.30 to 6.30	–
CNC(=O)[C@@H](NC(=O)[C@@H]1CN(C(=O)c2cncs2)CC12CN(CC1COC1)C2)[C@@H](C)OCC12CCC(CC1)OC2 [I-348]	< 4.70	–
CC(C)(O)C(NC(=O)[C@@H]1CN(C(=O)c2cncs2)CC12CN(C(=O)[C@H]1CC1(C)C)C2)c1cccc(C2CCOCC2)n1 (stereo partly shown) [I-423]	< 4.70	–
C[C@@H](OC(C)(C)C1CCCCC1)[C@H](NC(=O)[C@@H]1CN(C(=O)c2cncs2)CC12CN(C(=O)[C@H]1CC1(C)C)C2)C(=O)N1CCCCC1 [I-395]	5.30 to 6.30	–
C[C@@H](OCC1CCC(F)(F)CC1)[C@H](NC(=O)[C@@H]1CN(C(=O)c2cn[nH]c2)CC12CN(C(=O)[C@H]1CC1(C)C)C2)C(=O)N1CCOCC1 [I-301, (S)—N-((2S,3R)-3-((4,4-difluorocyclohexyl)methoxy)-1-morpholino-1-oxobutan-2-yl)-2-((S)-2,2-dimethylcyclopropane-1-carbonyl)-6-(1H-pyrazole-4-carbonyl)-2,6-diazaspiro[3.4]octane-8-carboxamide]	< 4.70	–
C[C@@H](OCC1CCCCC1)[C@H](NC(=O)[C@@H]1CN(C(=O)c2cnn(Cc3ccccc3)c2)CC12CN(C(=O)[C@H]1CC1(C)C)C2)C(=O)N1CCC(c2ncc[nH]2)CC1 [I-446]	5.30 to 6.30	–
CC1(C)C[C@@H]1C(=O)N1CC2(CN(C(=O)c3cnn(Cc4ccccc4)c3)C[C@H]2C(=O)NCc2ccc(C(F)(F)F)nn2)C1 [I-392]	< 4.70	–
CNC(=O)[C@@H](NC(=O)[C@@H]1CN(C(=O)c2cnn(Cc3ccccc3)c2)CC12CN(C(=O)[C@H]1CC1(C)C)C2)C1(OCC2CCCCC2)CC1 [I-396]	5.30 to 6.30	–
COC[C@H]1CCCN(C(=O)[C@@H](NC(=O)[C@@H]2CN(C(=O)c3cncs3)CC23CN(C(=O)C(C)(C)C2CC2)C3)[C@@H](C)OC[C@H]2CC[C@H](O)CC2)C1 [I-431]	< 4.70	–
